Experimental data as given in publication PMC7146574, “Efficacy of a Novel ACE-Inhibitory Peptide from Sargassum maclurei in Hypertension and Reduction of Intracellular Endothelin-1” (Nutrients, 2020).
Residues, ends and D or L forms follow the SMILES beside them.

Experiments:
ACE = test system: ACE; set-up: method as in 5 sources, ref 8, 38 = [8]; PMID 30893907; doi:10.3390/md17030179; 8. Sun S. Xu X. Sun X. Zhang X. Chen X. Xu N. Preparation and Identification of ACE Inhibitory Peptides from the Marine Macroalga Ulva intestinalis Mar. Drugs 2019 17 179 10.3390/md17030179 PMC6471128 || [38]; doi:10.1016/j.jff.2015.10.025; 38. Forghani B. Zarei M. Ebrahimpour A. Philip R. Bakar J. Abdul-Hamid A. Saari N. Purification and characterization of angiotensin converting enzyme-inhibitory peptides derived from Stichopus horrens ||| ref 5, 9 = [5]; PMID 31108740; doi:10.1016/j.foodres.2019.03.035; 5. Zhao Y. Zhang L. Tao J. Chi C. Wang B. Eight antihypertensive peptides from the protein hydrolysate of Antarctic krill ( Euphausia superba ): Isolation, identification, and activity evaluation on h || [9]; PMID 30229250; doi:10.1039/C8FO00569A; 9. Ling Y. Sun L.P. Zhuang Y.L. Preparation and identification of novel inhibitory angiotensin-I-converting enzyme peptides from tilapia skin gelatin hydrolysates: Inhibition kinetics and molecular do ||| ref 38, 40 = [38]; doi:10.1016/j.jff.2015.10.025; 38. Forghani B. Zarei M. Ebrahimpour A. Philip R. Bakar J. Abdul-Hamid A. Saari N. Purification and characterization of angiotensin converting enzyme-inhibitory peptides derived from Stichopus horrens || [40]; PMID 29606478; doi:10.1016/j.foodchem.2018.02.107; 40. Tu M. Wang C. Chen C. Zhang R. Liu H. Lu W. Jing L. Du M. Identification of a novel ACE-inhibitory peptide from casein and evaluation of the inhibitory mechanisms Food Chem. 2018 256 98 104 10.101 ||| ref 41, 28 = [41]; doi:10.1016/j.lwt.2018.12.059; 41. Bhaskar B. Ananthanarayana L. Jamdar S. Purification, identification, and characterization of novel angiotensin I converting enzyme (ACE) inhibitory peptides from alcalase digested horse gram flou || [28]; doi:10.1016/j.jff.2017.03.008; 28. Lin K. Zhang L. Han X. Cheng D.Y. Novel angiotensin I-converting enzyme inhibitory peptides from protease hydrolysates of Qula casein: Quantitative structure-activity relationship modeling and mol ||| ref 25 = [25]; doi:10.1016/j.lwt.2016.08.047; 25. Wang X. Chen H. Fu X. Li S. Wei J. A novel antioxidant and ACE inhibitory peptide from rice bran protein: Biochemical characterization and molecular docking study LWT Food Sci. Technol. 2017 75 93; details: cited from earlier work; for IC50: literature comparison
[1] = test system: spontaneously hypertensive rats (SHRs); assay: Antihypertensive effect in vivo, tail-cuff method; set-up: species or system rat; details: oral 50, 100 and 150 mg/kg body weight every day (Figure S3)
Experimental: Twenty male spontaneously hypertensive rats (SHRs; 11 weeks, 240 ± 20 g body weight) from Vital River Laboratory Animal Technology Co., Ltd. (Beijing, China) were randomly divided into five groups of four rats each: negative control, positive control, and high-, middle- and low- dosage groups. Normal diet and tap water were freely available. Rats in the high-, middle-, and low-dose groups were orally given the synthetic peptide (RWDISQPY) via gastric intubation at 150, 100, and 50 mg/kg/body weight once daily, respectively. Meanwhile, rats in the positive control were orally given captopril (14 mg/kg/body weight once daily), and rats in the negative control were just administrated saline (0.9%). The diastolic blood pressure (DBP) and systolic blood pressure (SBP) of the rats were measured by the tail-cuff method once a week. The heart rate was recorded simultaneously. The animal experiment was conducted in conformity with institutional guidelines for the care and use of laboratory animals in Shanxi Normal University (No. 20181003, 16 September 2018), Linfen, China. All of the rats received human care conforming to the National Institutes of Health Guide for Care and Use of Laboratory Animals (National Institute of Health Publication No. 85–23, revised).

[2] = test system: endothelin-1 (ET-1) in EA.hy926 cells; assay: Effects on intracellular endothelin-1 (ET-1), ELISA of growth medium; type: cell-based, human; details: captopril 1.0 mg/mL as comparison, 48 h
Experimental: In a humidified atmosphere with 5% CO2, the EA.hy926 cells (a permanent hybridoma of the human umbilical vein endothelial cells and human lung carcinoma cell line A549) grown in 96-well plates were cultured in DMEM containing non-essential amino acids (10 mg/mL), streptomycin (0.1 mg/mL), and fetal bovine serum (0.1 g/mL) at 37 °C [5]. The cells (1.0 × 10^5 cells mL^−1) were treated with the synthesized peptides (0.5–1.5 mg/mL) for 24 h, and then the MTT assay was used to measure the cytotoxicity levels of the peptides. Moreover, EA.hy926 cells seeded in another 96-well plate (1.0 × 10^5 cells mL^−1) were cultured in DMEM at 37 °C for 24 h, and then treated with synthesized peptides (1–2 mg/mL) for 48 h. After that, the ET-1 content of the growth medium in each well was quantified by the ET-1 Elisa kit according to the instructions. Cells in the blank group were not treated with samples, while the cells in the positive group were treated with captopril (1 mg/mL). The inhibition ability on ET-1 was calculated as follows:(1) Inhibition abliliy (%)=(CB−Cs)/CB×100% where CB was the ET-1 content of the growth medium in the blank group and CS was the ET-1 content of the growth medium treated with the samples.

| Compound | IC50 (ACE) [µM] | ACE inhibition pattern (ACE) | further results |
| --- | --- | --- | --- |
| VSRHFASYAN | 210 |  |  |
| PFPGPIPN |  | competitive |  |
| QAGLSPVR | 63.9 |  |  |
| FGMPLDR | 219 |  |  |
| TVGMTAKF |  | competitive |  |
| CC[C@H](C)[C@H](NC(=O)[C@H](CC(=O)O)NC(=O)[C@H](Cc1c[nH]c2ccccc12)NC(=O)[C@@H](N)CCCNC(=N)N)C(=O)N[C@@H](CO)C(=O)N[C@@H](CCC(N)=O)C(=O)N1CCC[C@H]1C(=O)N[C@@H](Cc1ccc(O)cc1)C(N)=O [RWDISQPY] (H-RWDISQPY-NH2) |  |  | Effect on heart rate [1]: no side effect; Effect on normal increase in body weight [1]: no side effect |
| NMAINPSKENLCSTFCK | 129 |  |  |
| C[C@H](CS)C(=O)N1CCC[C@H]1C(=O)O [captopril] |  |  | Effect on ET-1 secretion [2]: reduce ET-1 secretion |
| QLLLQQ |  | competitive |  |
| GSAGY [literature peptide identified from horrens protein] | 706 |  |  |
